Data as given in patent publication US20090082408A1, “NOVEL HETEROCYCLIC DERIVATIVES” (priority 2005, published 2009).
Where a name gives a salt, the structure may show the parent alone.

Experiments:
[1] = test system: 3T3-L1 cells; test: Glucose uptake assay using 3T3-L1 cells; type: cell-based; details: 14C deoxyglucose uptake in differentiated 3T3-L1 adipocytes; 1 μM for 72 hours; relative to reference compound BLX-1002
Protocol: Glucose Uptake Assay Using 3T3-L1 Cells
3T3-L1 cells were differentiated by the addition of differentiation cocktail (72 μg/ml insulin, 0.5 mM IBMX, 400 ng/ml Dexamethasone) for 4 days and were later fed with media without the differentation cocktail for 7-8 days. After differentiation the cells were incubated with the either the reference compound BLX-1002 or with the compounds listed in the table 1 at 1 μM concentrations for 72 hours, and the glucose uptake assay was carried out for 10 minutes by the addition of KRP buffer supplemented with 2.5 μCi/ml ^14C deoxy glucose. Stimulation Index is defined as the amount of ^14C Deoxyglucose uptake induced by 1 μM of BLX-1002 incubated for 72 hours in an assay condition as per the protocol described above with differentiated 3T3-L1 adipocytes. The values for compounds mentioned in table-1 are with reference to the stimulation index of reference compound BLX-1002.

[2] = test system: streptozotocin induced diabetic mice; test: Antidiabetic activity in streptozotocin induced diabetic mice; type: in vivo; details: 50 mg/kg body weight, oral route, 7 days, female Swiss albino mice, fasted 6 hours
Protocol: Antidiabetic Activity in Streptozotocin Induced Diabetic Mice
Female Swiss albino mice, at the age of 10 weeks were used in the study. Diabetes was induced in the animals by injecting streptozotocin by i.p. route at a dose of 200 mg/kg body weight. 48 hours after streptozotocin administration, the animals were kept fasting for 6 hours. Subsequently blood was collected, plasma separated and the glucose was estimated. Animals showing greater than 200 mg/dl glucose levels were considered as diabetic and these animals were randomly distributed into various groups. The example 2 listed in the table 2 was administered at a dose of 50-mg/kg body weight by oral route for 7 days. Later the animals were fasted for 6 hours, the blood was collected and the plasma was separated. Biochemical estimations like glucose, cholesterol and triglycerides were carried out using the plasma. The effect of the compounds mentioned in the table was expressed in terms of percentage reduction in biochemical values as compared to the control group.

Row | Compound | Stimulation Index [1] | % Reduction Glucose ([2]; plasma glucose vs control group) [%] | % Reduction Triglyceride ([2]; plasma triglyceride vs control group) [%]
1 | COC(=O)C(N)Cc1ccc(Oc2ccc(Nc3ccccn3)cc2)cc1 (stereo not drawn) [Example 1, Methyl-2-amino-3-{4-[4-(pyridin-2-ylamino)phenoxy]phenyl}propionate dihydrochloride] | 1.10 |  | 
2 | COC(=O)[C@@H](N)Cc1ccc(Oc2ccc(Nc3ccccn3)cc2)cc1 [Example 2, Methyl (2S)-2-amino-3-{4-[4-(pyridin-2-ylamino)phenoxy]phenyl}propanoate dihydrochloride] |  | 52.4 | 49.6
